Results taken from BindingDB's records for patent US20250066353 (Athos Therapeutics, 2025).

Molecular target: T1, Pantetheinase (Homo sapiens, UniProt O95497)
T1 sequence (O95497 whole entry): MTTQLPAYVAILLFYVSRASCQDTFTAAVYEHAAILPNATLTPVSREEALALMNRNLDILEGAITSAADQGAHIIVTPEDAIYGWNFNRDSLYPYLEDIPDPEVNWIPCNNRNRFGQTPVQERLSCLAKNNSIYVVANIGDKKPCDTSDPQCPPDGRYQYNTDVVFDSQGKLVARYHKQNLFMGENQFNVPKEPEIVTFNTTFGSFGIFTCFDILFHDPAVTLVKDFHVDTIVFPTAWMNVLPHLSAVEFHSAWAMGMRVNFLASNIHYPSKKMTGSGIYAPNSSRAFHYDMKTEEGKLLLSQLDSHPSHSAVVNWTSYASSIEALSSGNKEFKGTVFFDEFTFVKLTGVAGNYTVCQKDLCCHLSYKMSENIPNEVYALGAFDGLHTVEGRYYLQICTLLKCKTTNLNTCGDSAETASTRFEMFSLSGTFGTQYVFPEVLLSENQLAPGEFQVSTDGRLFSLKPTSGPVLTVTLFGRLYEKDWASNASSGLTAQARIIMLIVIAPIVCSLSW
Experiment: VNN1 Inhibitor Binding Assay
Protocol: 5 μL of 3× (45 μM) of Pantothenate-AMC to achieve final concentrations of 15 μM (0.25% DMSO final) were added in a 384 well assay plate followed by the addition of 5 μL of 3× the desired concentration of the tested compounds (Compound 1; Compound 2; and RR6) in 0.75% DMSO to designated wells (0.25% of DMSO final). The range of the compound concentrations tested was 10, 3.33, 1.11, 0.37, 0.12, 0.04, 0.01, 0.0046, 0.001, and 0.0005 μM. 5 μL of 0.75% DMSO were also added to positive and negative control wells.5 μL of 1.4 ng/μL Vanain-1 was added to the assay plate to achieve a final amount of 7 ng/well, and covered with plate sealer. Another 5 μL of assay buffer was added to negative controls and the assay plate was then centrifuged briefly (1000 rpm for 30 s) in a plate centrifuge. The assay plate was incubated in the dark for 20 minutes at room temperature and immediately read on an Envision 2105, PerkinElmer multimode plate reader.The fluorescence read was captured at excitation wavelength of 355 nm and emission wavelength of 460 nm.

IC50: > 10 µM
SMILES: CC(=O)NCCN1Cc2nc(NCc3cncc(C#N)c3)ccc2C1=O [US20250066353, Compound 41]
